The results in this text go back to patent US7491704B2, “Compounds for enzyme inhibition” (Proteolix, Inc., priority 2004, dated 2009).

For assay [1], the target named is 20S proteasome chymotrypsin-like activity (CT-L) (Homo sapiens, UniProt P20618+P28074). Description: 20S proteasome chymotrypsin-like (CT-L) activity inhibition. Type of assay: biochemical. On the procedure:
The enzyme inhibitor analogs and prodrugs disclosed herein are useful in part because they inhibit the action of the 20S proteasome. […] That is, the instant compounds show selectivities for the 20S proteasome over other proteases such as cathepsins, calpains, papain, chymotrypsin, trypsin, tripeptidyl pepsidase II. The selectivities of the enzyme inhibitors for 20S proteasome are such that at concentrations below about 50 μM, the enzyme inhibitors show inhibition of the catalytic activity of the 20S proteasome, while not showing inhibition of the catalytic activity of other proteases such as cathepsins, calpains, papain, chymotrypsin, trypsin, tripeptidyl pepsidase II. In preferred embodiments, the enzyme inhibitors show inhibition of the catalytic activity of the 20S proteasome at concentrations below about 10 μM, while not showing inhibition of the catalytic activity of other proteases at these concentrations. […]
The chymotrypsin-like activity of 20S proteasome is characterized by cleavage of peptides in the immediate vicinity of large hydrophobic residues. In particular, the chymotrypsin-like activity of Ntn hydrolases can be determined by cleavage of a standard substrate. […]

Assay [2] addresses T1, proteasome chymotrypsin-like activity (CT-L), cell-based (Homo sapiens, UniProt P28074).
T1 construct: endogenous in cells
T1 sequence (P28074 60-263): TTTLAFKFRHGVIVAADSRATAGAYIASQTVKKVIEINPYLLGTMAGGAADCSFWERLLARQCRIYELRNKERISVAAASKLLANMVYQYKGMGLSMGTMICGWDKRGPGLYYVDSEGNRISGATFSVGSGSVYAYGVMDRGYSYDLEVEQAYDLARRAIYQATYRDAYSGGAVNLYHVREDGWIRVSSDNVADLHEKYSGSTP
Description: Cell-based CT-L activity inhibition.

Where only a bound is given, the exact number is not on record here.

As to `CC(C)CC(NC(=O)C(CCc1ccccc1)NC(=O)CN(C)C)C(=O)NC(Cc1ccccc1)C(=O)NC(CC(C)C)C(=O)C1(C)CO1` (centres unmarked) [compound 3], the IC50 in assay [1] and in assay [2] was less than 100 nM each time.
